For this assay, the target named is T1, Human BACE (Homo sapiens, UniProt P56817).
T1 construct: Recombinant BACE (extracellular domain, expressed in baculovirus and purified using standard methods); made in house; host or cells: baculovirus expression system (insect cells)
In words: Test 1: Inhibition of Human BACE. It is filed as biochemical. Conditions: recombinant BACE, fluorescence-quenched peptide substrate, pH 4.5. As for the experimental part: Test 1: Inhibition of Human BACE
Recombinant BACE (extracellular domain, expressed in baculovirus and purified using standard methods) at 0.1 to 10 nM concentrations is incubated with the test compound at various concentrations for 1 hour at room temperature in 10 to 100 mM acetate buffer, pH 4.5, containing 0.1% CHAPS.

From patent publication US20090312370A1, “MACROCYCLIC COMPOUNDS USEFUL AS BACE INHIBITORS” (priority 2006, published 2009) come the findings set out here.

As a reminder, the IC50 is the concentration needed to halve the response being measured.

T1 sequence (P56817 46-457 limits assumed): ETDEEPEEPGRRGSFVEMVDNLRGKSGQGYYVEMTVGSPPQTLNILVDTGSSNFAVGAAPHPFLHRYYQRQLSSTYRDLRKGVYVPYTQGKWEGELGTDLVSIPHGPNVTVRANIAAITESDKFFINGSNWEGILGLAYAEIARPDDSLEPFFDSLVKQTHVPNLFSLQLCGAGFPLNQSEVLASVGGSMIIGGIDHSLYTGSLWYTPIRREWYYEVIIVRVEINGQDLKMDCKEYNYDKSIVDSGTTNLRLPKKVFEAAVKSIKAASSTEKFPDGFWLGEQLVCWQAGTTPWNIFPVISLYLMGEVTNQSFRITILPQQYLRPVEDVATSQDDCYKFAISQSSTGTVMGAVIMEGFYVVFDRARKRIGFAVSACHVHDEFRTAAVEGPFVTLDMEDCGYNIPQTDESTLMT

For the molecule `COc1cc2cc(c1)C(=O)N[C@H]([C@H](O)CNC1(c3cc(C(C)(C)C)ccn3)CC1)C[C@H](C)CCCCCCCN2` [Example 7, (10R,12S)-12-{(R)-2-[1-(4-tert-Butyl-pyrid-2-yl)-cyclopropylamino]-1-hydroxy-ethyl}-17-methoxy-10-methyl-2,13-diaza-bicyclo[13.3.1]nonadeca-1(19),15,17-trien-14-one], the IC50 came to 40 nM.
